How the values were obtained:
[1] = tested on: Salmonellae; assay: Salmonellae log reduction in pot pie filling by 4-HBITC only (frozen filling thawed to room temperature, plate count); format: cell-based
Text: (§1) Pot pie fillings made up of both Salmonellae inoculated particulates and gravy carrying the 4-hydroxybenzyl isothiocyanate (4-HBITC) in white mustard essential oil (WMEO), is used to evaluate the effect of 4-HBITC in a heterogeneous food system. Standing overnight cultures of five strains of Salmonellae are used to inoculate, at two different levels, mixtures of frozen vegetable and chicken particulates containing about 62% chicken, 17% carrot, 15% potato and 2% peas, as described in Example 2, all by weight of the total particulate mixture. The high level contains about 6 log colony forming units (cfu)/gm while the medium level contains about 3 log cfu/gm of Salmonellae. Bags containing the inoculated cultures and the particulates are gently inverted and rolled to ensure uniform coating of the particulates and the inoculated particles are then stored at −28° C. for 24 hours before being mixed with sauce containing white mustard essential oil (WMEO).
(§2) Sauce as made in Example 2 is used as the vehicle for WMEO. From a 2.4% 4-HBITC in WMEO stock solution in peanut oil made as described in Example 1, accurate amounts are weighed out such that 400 g of the pie filling comprising 36% of the particulates and 64% of the gravy will have 750, 562.5 or 250 ppm, 4-HBITC when mixed together. The particulates and the sauce are first put together in a sterile bowl and the WMEO in peanut oil added to the mixture and mixed gently for about 1 minute. The control (0 ppm 4-HBITC samples have only the vegetable oil added to them before mixing. The completed pie fillings are then immediately frozen at −28° C. for 48 hours before the second stage of the experiment.
(§3) To enumerate the accurate Salmonellae count prior to freezing, a sample is removed from each of the mixed pie fillings, including the control, and diluted at a ratio of 1:10 with Butterfields buffer and homogenized using a stomacher. The homogenized and diluted sample is suitably diluted further to obtain the appropriate number of bacterial colonies per plate and plated in triplicate on trypticase soy agar with yeast extract and allowed to stabilize for 30-60 minutes. The plates are then over-laid with xyline-lysine-deoxycholate (XLD) agar to resuscitate and recover injured cells and incubated at 35° C. for 48 hours before counting the colonies.
(§4) In the second stage of the experiment, the frozen pie fillings are cooked in 700 W or 1100 W microwave ovens. During cooking, samples are removed from the pie fillings at 15, 45, 60, 90 120, 180 and 240 seconds. At each of these time points, the surviving microbial counts are enumerated by removing discrete 25 g samples and plating them in the manner described above. To determine the effect of 4-HBITC only, each of the treatments and the control is thawed to room temperature and triplicate samples are used to enumerate the surviving microorganisms as detailed above.
(§5) The microbial reductions resulting from the treatments is attributed to the simultaneous action of microwave heating and 4-HBITC while microbial reductions occurring in the 0 ppm 4-HBITC containing control sample is attributed to microwave heating only. If the reduction in microbial counts due to the simultaneous action of 4-HBITC and microwave heating is greater than the sum of the individual reductions in microbial counts due to 4-HBITC and microwave heating, a synergistic effect is considered to be present (YES). If the reduction in microbial counts due to the simultaneous action of 4-HBITC and microwave heating is equal to or less than the sum of the individual reductions in microbial counts due to 4-HBITC and due to microwave heating, a synergistic effect is considered to be absent (NO).

[2] = tested on: Salmonellae; assay: Salmonellae log reduction in frozen pot pie filling containing 4-HBITC cooked in a microwave oven (plate count); format: cell-based; parameters: key to Synergistic effect Yes/No: Yes: reduction in microbial counts due to the simultaneous action of 4-HBITC and microwave heating is greater than the sum of the individual reductions in microbial counts due to 4-HBITC and microwave heating, a synergistic effect is considered to be present (YES); No: reduction in microbial counts due to the simultaneous action of 4-HBITC and microwave heating is equal to or less than the sum of the individual reductions in microbial counts due to 4-HBITC and due to microwave heating, a synergistic effect is considered to be absent (NO); details: for Synergistic effect Yes/No: 180 sec
Text: as §1, §2, §3, §4, §5

[3] = 250 ppm 4-HBITC, inoc. level H, MW power 700 Watts
[4] = 250 ppm 4-HBITC, inoc. level H, MW power 1100 Watts
[5] = 250 ppm 4-HBITC, inoc. level M, MW power 700 Watts
[6] = 250 ppm 4-HBITC, inoc. level M, MW power 1100 Watts
[7] = 562.5 ppm 4-HBITC, inoc. level H, MW power 700 Watts
[8] = 562.5 ppm 4-HBITC, inoc. level H, MW power 1100 Watts
[9] = 562.5 ppm 4-HBITC, inoc. level M, MW power 700 Watts
[10] = 562.5 ppm 4-HBITC, inoc. level M, MW power 1100 Watts
[11] = 750 ppm 4-HBITC, inoc. level H, MW power 700 Watts
[12] = 750 ppm 4-HBITC, inoc. level H, MW power 1100 Watts
[13] = 750 ppm 4-HBITC, inoc. level M, MW power 700 Watts
[14] = 750 ppm 4-HBITC, inoc. level M, MW power 1100 Watts

SMILES: Oc1ccc(CN=C=S)cc1 [4-HBITC, 4-hydroxybenzyl isothiocyanate]
- log reductions (180 sec) due to 4-HBITC only [1, 3]: 0.74 log
- log reductions (180 sec) due to 4-HBITC only [1, 4]: 1.05 log
- log reductions (180 sec) due to 4-HBITC only [1, 5]: 1.15 log
- log reductions (180 sec) due to 4-HBITC only [1, 6]: 1.1 log
- log reductions (180 sec) due to 4-HBITC only [1, 7]: 1.59 log
- log reductions (180 sec) due to 4-HBITC only [1, 8]: 1.59 log
- log reductions (180 sec) due to 4-HBITC only [1, 9]: 2.4 log
- log reductions (180 sec) due to 4-HBITC only [1, 10]: 2.4 log
- log reductions (180 sec) due to 4-HBITC only [1, 11]: 2.03 log
- log reductions (180 sec) due to 4-HBITC only [1, 12]: 2.14 log
- log reductions (180 sec) due to 4-HBITC only [1, 13]: 2.4 log
- log reductions (180 sec) due to 4-HBITC only [1, 14]: 2.64 log
- log reductions (180 sec) due to Simultaneous action of 4-HBITC & heat [2, 3]: 1.11 log
- Synergistic effect Yes/No [2, 3]: No
- log reductions (180 sec) due to Simultaneous action of 4-HBITC & heat [2, 4]: 1.63 log
- Synergistic effect Yes/No [2, 4]: Yes
- log reductions (180 sec) due to Simultaneous action of 4-HBITC & heat [2, 5]: 1.42 log
- Synergistic effect Yes/No [2, 5]: No
- log reductions (180 sec) due to Simultaneous action of 4-HBITC & heat [2, 6]: 1.38 log
- Synergistic effect Yes/No [2, 6]: No
- log reductions (180 sec) due to Simultaneous action of 4-HBITC & heat [2, 7]: 2.97 log
- Synergistic effect Yes/No [2, 7]: Yes
- log reductions (180 sec) due to Simultaneous action of 4-HBITC & heat [2, 8]: 5.25 log
- Synergistic effect Yes/No [2, 8]: Yes
- log reductions (180 sec) due to Simultaneous action of 4-HBITC & heat [2, 9]: 4.38 log
- Synergistic effect Yes/No [2, 9]: Yes
- log reductions (180 sec) due to Simultaneous action of 4-HBITC & heat [2, 10]: 4.38 log
- Synergistic effect Yes/No [2, 10]: Yes
- log reductions (180 sec) due to Simultaneous action of 4-HBITC & heat [2, 11]: 5.25 log
- Synergistic effect Yes/No [2, 11]: Yes
- log reductions (180 sec) due to Simultaneous action of 4-HBITC & heat [2, 12]: 1.56 log
- Synergistic effect Yes/No [2, 12]: No
- log reductions (180 sec) due to Simultaneous action of 4-HBITC & heat [2, 13]: 4.38 log
- Synergistic effect Yes/No [2, 13]: Yes
- log reductions (180 sec) due to Simultaneous action of 4-HBITC & heat [2, 14]: 4.38 log
- Synergistic effect Yes/No [2, 14]: Yes

From US20130280388A1, “Solid Food Products and Methods of Their Preservation” (priority 2012, published 2013)
